Assay results published in US10954244B2, “Compounds and uses thereof” (Kala Pharmaceuticals, Inc., priority 2013, dated 2021).

Key:
[1] = Milling with Pluronic F127 to mucus penetrating particles, particle size by dynamic light scattering; assay type: physicochemical; settings: formulated as MPP, milled with Pluronic F127, DPBS buffered
Text: Compounds of the present invention synthesized in accordance with the preceding Examples were formulated as mucus penetrating particles (MPP). Specifically, compounds I-2, compound I-5, and compound I-6 were each milled in the presence of Pluronic F127 (F127) to determine whether F127 1) aids particle size reduction to several hundreds of nanometers and 2) physically (non-covalently) coats the surface of generated nanoparticles with a mucoinert coating that would minimize particle interactions with mucus constituents and prevent mucus adhesion.
A milling procedure was employed in which an aqueous dispersion containing coarse drug particles and Pluronic F127 (F127) was milled with grinding medium until particle size was reduced below 400 nm as measured by dynamic light scattering. Table 4 lists the size of particles and polydispersity index (a measure of the width of the particle size distribution) generated using this technique. In this example suspensions were buffered using DPBS (Dulbecco's Phosphate-Buffered Saline) which yields a suspension that is both isotonic and has a physiologically relevant pH.

[2] = Mobility of nanoparticles in human cervicovaginal mucus (dark field microscopy); settings: low pH of CVM
Procedure: In order to determine whether the generated nanoparticles have reduced interactions with mucins and are therefore able to move within mucus without becoming trapped, particles were incubated with human cervicovaginal mucus (CVM) and observed via dark field microscopy. In a typical experiment, 51 μL of the nanoparticle suspension was added to 20 μl of CVM. Observations were made in a minimum of three distinct and randomly selected areas of the CVM sample. Control particles with known behavior were used to qualify the CVM sample as appropriate for the assay.

[3] = Physical and chemical stability of I-2 solutions at room temperature; assay type: physicochemical; settings: formulation buffered in 20 mM Tris (pH 8), F127
Procedure: Solutions of I-2 were formulated with F127 or Tween 80, and under a range of pH values. Briefly, I-2 was first completely solubilized using an acidic solution (0.1 N HCl) at a high concentration of ˜5% (w/v). The final formulation was diluted to a solution consisting of 0.5% (w/v) I-2 into buffered solution containing F127 or Tween 80 as described in Table 5. Following dilution, the pH of the formulations was measured using pH indicator strips (PEHANON) and confirmed to be within expected range (±0.5 units of target pH).
Physical and chemical stability of the solutions at room temperature (20-25° C.) were assessed after 7-10 days (tfinal). Physical instability in a solution can manifest as the precipitation and sedimentation of the drug of interest and excipients over time. To assess physical stability, the formulations at tfinal were first filtered through a 300 kDa modified polyethersulfone filter membrane (Nanosep) to remove any precipitate in the solution. The concentration of I-2 in the filtrates was then measured and compared to that at t=0. The purity of I-2 in the unfiltered solution was also evaluated at tfinal, to further confirm chemical stability. This parameter is defined by the area under the signal peak that is attributed to compound I-2 as a percentage of all peaks reported by in the sample by HPLC (% peak area).

[4] = Draize-Ocular Irritation assessment; assay type: in vivo, Dutch-belted rabbits; settings: topical I-2 solution during the PK studies

With `Cc1cc(C(=O)Nc2cc(Oc3ccc4nc(NC(=O)NC5COC5)cn4n3)ccc2C)n(C)n1` [Compound I-5] the “Polydispersity Index (PDI)” value [1] was 0.160.

For `Cc1cc(C(=O)Nc2cc(Oc3ccc4nc(NC(=O)CN5CC[C@H](N(C)C)C5)cn4n3)ccc2C)n(C)n1` [Compound I-2], the “solubility in CVM” value [2] was “soluble in the low pH of CVM”, the “physical stability of the solution” value [3] was “major physical instability (i.e., precipitation)” and the “Draize-Ocular Irritation” value [4] was “no irritation was seen”.

In the case of `Cc1ccc(Oc2ccc3nc(NC(=O)CC4COC4)cn3n2)cc1NC(=O)c1cccc(F)c1` [Compound I-6], the “Particle Size” value ([1]; dynamic light scattering) was 245 nm.
